Measurements taken from PubChem BioAssay (NCI).
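Following 48 hours of exposure in 96-well plates, responses at five concentrations were used to interpolate endpoints linearly. At the GI50, growth is halved. TGI marks complete inhibition of growth.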

Columns and labels:
Assay in all cases: inhibition of tumour cell growth, NCI panel, 48 h
EKVX NSCLC = test system: EKVX NSCLC
T-47D breast = test system: T-47D breast
MDA-MB-231 breast = test system: MDA-MB-231 breast
KM12 colon = test system: KM12 colon
SK-OV-3 ovarian = test system: SK-OV-3 ovarian
COLO 205 colon = test system: COLO 205 colon
SN12C renal = test system: SN12C renal
SK-MEL-28 melanoma = test system: SK-MEL-28 melanoma
HOP-62 NSCLC = test system: HOP-62 NSCLC
MOLT-4 leukemia = test system: MOLT-4 leukemia

| SMILES | GI50 (EKVX NSCLC) | TGI (EKVX NSCLC) | GI50 (T-47D breast) | TGI (T-47D breast) | GI50 (MDA-MB-231 breast) | TGI (MDA-MB-231 breast) | GI50 (KM12 colon) | TGI (KM12 colon) | GI50 (SK-OV-3 ovarian) | TGI (SK-OV-3 ovarian) | GI50 (COLO 205 colon) | TGI (COLO 205 colon) | GI50 (SN12C renal) | TGI (SN12C renal) | GI50 (SK-MEL-28 melanoma) | TGI (SK-MEL-28 melanoma) | TGI (HOP-62 NSCLC) | TGI (MOLT-4 leukemia) | GI50 (HOP-62 NSCLC) | GI50 (MOLT-4 leukemia) |
| --- | --- | --- | --- | --- | --- | --- | --- | --- | --- | --- | --- | --- | --- | --- | --- | --- | --- | --- | --- | --- |
| O=Nc1ccc2ccccc2c1O | 8.61 µM | 22.6 µM | 2.75 µM | 6.08 µM | 10 µM | 25.1 µM | 6.23 µM | 19.2 µM | 19.9 µM | 45.5 µM | 4.79 µM | 16.6 µM | 1.9 µM | 5.26 µM | 9.08 µM | 22.2 µM |  |  |  |  |
| O=C1C(=O)N(c2ccc(Cl)cc2Cl)C(=O)C(=O)C1c1nc2ccccc2o1 |  | > 100 µM |  |  |  |  |  | > 100 µM |  | > 100 µM |  | > 100 µM |  | > 100 µM |  | > 100 µM | > 100 µM | > 100 µM |  |  |
| COc1ccc2c(c1)C(=O)/C(=C/c1ncc([N+](=O)[O-])n1C)O2 |  |  | 4.2 µM | > 100 µM | 0.299 µM | 0.826 µM | 0.279 µM | 0.973 µM | 2.11 µM | 6.43 µM | 1.07 µM | 3.9 µM | 0.292 µM | 1.3 µM | 0.317 µM | 1.91 µM | 5.03 µM | 0.562 µM | 2.07 µM | 0.161 µM |
| COc1ccc(/C=C\c2cc(OC)c(OC)c(OC)c2)cc1OC(=O)CCC(=O)O | 51.5 µM | > 100 µM |  | 97.1 µM |  |  |  |  | 0.0442 µM | > 100 µM | 1.68 µM | 38.5 µM |  | > 100 µM |  | > 100 µM | > 100 µM |  |  |  |
| CC(=O)CCCCO |  | > 100 µM |  |  |  |  |  | > 100 µM |  | > 100 µM |  | > 100 µM |  | > 100 µM |  | > 100 µM | > 100 µM | > 100 µM |  |  |
| COc1cccc(Cc2c3cc(OC)ccc3cc[n+]2C)c1 |  | > 100 µM |  |  |  |  |  | > 100 µM |  |  |  |  |  | > 100 µM |  | > 100 µM | > 100 µM | > 100 µM |  |  |
| COc1ccccc1NC(=O)C1=C(C)NC(C)=C(C(=O)Nc2ccccc2OC)C1c1ccc(C)cc1 |  | > 100 µM |  |  |  |  |  | > 100 µM |  | > 100 µM |  | 44 µM |  | > 100 µM |  | > 100 µM | > 100 µM |  |  |  |
| CCOC(=O)C1SC(=Nc2ccc(Cl)c(Cl)c2)N=C1C (centres undefined) |  | > 100 µM |  |  |  |  |  | > 100 µM |  | > 100 µM |  | 76.3 µM |  | 53 µM |  | > 100 µM | > 100 µM | > 100 µM |  |  |
| CCSC1=C(C)N(C=NC(C)(C)C)CC1 |  | > 100 µM |  |  |  |  |  | > 100 µM |  | > 100 µM |  | > 100 µM |  | > 100 µM |  | > 100 µM | > 100 µM | > 100 µM |  |  |
| N#CC1=C(N)NC(=O)NC12Nc1ccccc1S2 (centres undefined) |  |  | 26.7 µM | > 100 µM | 10.4 µM | 31.2 µM | 26.5 µM | > 68.4 µM | 30.3 µM | > 70.7 µM | 15.8 µM | > 73.1 µM | 17.6 µM | 50.8 µM | 26.7 µM | > 70.3 µM | 56.7 µM | > 100 µM | 23.1 µM | > 48.3 µM |
| COc1cc(-c2nc3sc4c(c3c(=O)[nH]2)CCCCCC4)cc(OC)c1OC |  |  | 1.4 µM | > 33.2 µM | 1.07 µM | 29.5 µM | 1.21 µM | > 33.2 µM | 0.89 µM | 16.4 µM | 1.16 µM | 10.3 µM | 2.14 µM | > 33.2 µM | 1.95 µM | > 33.2 µM | > 33.2 µM | > 33.2 µM | 1.36 µM | 1.86 µM |
| CN(C)C(=O)c1cc2cnc(Nc3ccc(-c4csc5c(=O)cc(N6CCOCC6)oc45)cc3)nc2n1C1CCCC1 | 0.214 µM | 1.98 µM | 0.171 µM | > 100 µM |  |  | 0.0414 µM | 0.682 µM | 0.478 µM | 2.88 µM | 0.166 µM | 1.32 µM | 0.21 µM | 14.6 µM | 0.207 µM | 0.869 µM | 1.67 µM | 3.26 µM | 0.269 µM | 0.23 µM |
| COc1ccc2nc3cc(Cl)ccc3c(NCCCNCCC(C)O)c2c1 (centres undefined) | 0.473 µM | 2.41 µM | 1.04 µM | 4.04 µM | 0.203 µM | 1.37 µM | 0.408 µM | 1.98 µM | 0.465 µM | 2.62 µM | 0.217 µM | 1.29 µM |  |  |  |  | 2.35 µM | 1.58 µM | 0.389 µM | 0.119 µM |
| NC(N)=NNC(=O)CCCCCCCC(=O)NN=C(N)N |  | > 100 µM |  |  |  |  |  | > 100 µM |  | > 100 µM |  | 35.4 µM |  | > 100 µM |  | > 100 µM | > 100 µM |  |  |  |
| COc1ccc2c(c1)C(c1ccccc1Cl)=Nc1c(n[nH]c1C)N2 |  |  | > 17.6 µM | > 25 µM | > 25 µM | > 25 µM | 0.995 µM | > 25 µM | > 25 µM | > 25 µM | 11.7 µM | > 25 µM | > 20.3 µM | > 25 µM | > 25 µM | > 25 µM | > 25 µM | > 25 µM | > 25 µM | > 25 µM |
| O=C(CC(=O)N1N=C(N2c3ccccc3Sc3ccccc32)CC1c1ccccc1)Nc1ccc(Cl)cc1 (centres undefined) |  | > 100 µM |  |  |  |  |  | > 100 µM |  | > 100 µM |  | > 100 µM |  | > 100 µM |  | > 100 µM | > 100 µM |  |  |  |
| O=C(N/N=C/c1ccccc1O)C(=O)Nc1ccc(F)cc1 |  |  | 6.63 µM | > 100 µM | 3.23 µM | > 100 µM | 6.97 µM | > 100 µM | 10.3 µM | > 100 µM | 3.28 µM | > 100 µM | 6.46 µM | > 100 µM | 8.04 µM | > 100 µM | > 100 µM | > 100 µM | 10.7 µM | 2.87 µM |
